Activity calls are given as the source filed them. No cut-off for these calls is given here.
Assays:
[1] = test system: NFS-60; experiment: Antitumor activity against mouse M-NFS-60 cells xenografted in CD-1 nude mouse assessed as inhibition of tumor growth measured after 4 days of tumor implantation; assay type: functional, cell-based
[2] = Oral bioavailability in Sprague-Dawley rat plasma at 10 mg/kg by LC-MS/MS analysis; assay type: ADME, organism-based; details: Sprague-Dawley, plasma
[3] = AUC in Sprague-Dawley rat plasma at 10 mg/kg, po by LC-MS/MS analysis; assay type: ADME, organism-based; parameters: dose 10 mg/kg, route oral; details: Sprague-Dawley, plasma
[4] = Clearance in Sprague-Dawley rat plasma at 1 mg/kg, iv and 10 mg/kg, po by LC-MS/MS analysis; assay type: ADME, organism-based
[5] = Antitumor activity against mouse M-NFS-60 cells xenografted in CD-1 nude mouse assessed as inhibition of tumor growth at 100 mg/kg, po measured after 4 of tumor implantation; assay type: functional; details: read-out: TGI
[6] = Antitumor activity against mouse M-NFS-60 cells xenografted in CD-1 nude mouse assessed as inhibition of tumor growth at 30 mg/kg, po measured after 4 of tumor implantation; assay type: functional; details: read-out: TGI
[7] = Antitumor activity against mouse M-NFS-60 cells xenografted in CD-1 nude mouse assessed as inhibition of tumor growth at 10 mg/kg, po measured after 4 of tumor implantation; assay type: functional; details: read-out: TGI
[8] = test system: Rattus norvegicus; experiment: Toxicity in rat at 200 mg/kg administered for 7 days; assay type: organism-based; parameters: dose 200 mg/kg; details: in vivo, 168 h
[9] = AUC in po dosed CD-1 mouse by LC-MS/MS analysis; assay type: ADME, organism-based; details: plasma
[10] = test system: Rattus norvegicus; experiment: Toxicity in rat assessed as diarrhea at 800 mg/kg administered for 7 days; assay type: organism-based; parameters: dose 800 mg/kg; details: in vivo, 168 h
[11] = molecular target: Cytochrome P450 3A4 (Homo sapiens, UniProt P08684); experiment: Inhibition of CYP3A4; assay type: ADME
Cytochrome P450 3A4, sequence (P08684 whole entry): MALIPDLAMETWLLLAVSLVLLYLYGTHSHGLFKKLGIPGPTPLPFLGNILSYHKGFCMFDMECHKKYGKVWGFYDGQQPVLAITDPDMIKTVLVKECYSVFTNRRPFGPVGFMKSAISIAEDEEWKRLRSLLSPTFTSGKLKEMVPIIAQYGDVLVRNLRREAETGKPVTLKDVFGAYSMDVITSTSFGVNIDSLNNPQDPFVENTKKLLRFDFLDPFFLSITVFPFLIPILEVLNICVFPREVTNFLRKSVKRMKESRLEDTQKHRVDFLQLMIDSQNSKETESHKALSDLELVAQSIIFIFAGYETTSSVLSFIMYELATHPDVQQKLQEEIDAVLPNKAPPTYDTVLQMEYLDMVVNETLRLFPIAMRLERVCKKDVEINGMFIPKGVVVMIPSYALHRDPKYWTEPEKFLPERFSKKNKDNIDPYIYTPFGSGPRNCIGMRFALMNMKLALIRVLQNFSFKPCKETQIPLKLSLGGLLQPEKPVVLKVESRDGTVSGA

[12] = molecular target: Cytochrome P450 2C19 (Homo sapiens, UniProt P33261); experiment: Inhibition of CYP2C19; assay type: ADME
Cytochrome P450 2C19, sequence (P33261 whole entry): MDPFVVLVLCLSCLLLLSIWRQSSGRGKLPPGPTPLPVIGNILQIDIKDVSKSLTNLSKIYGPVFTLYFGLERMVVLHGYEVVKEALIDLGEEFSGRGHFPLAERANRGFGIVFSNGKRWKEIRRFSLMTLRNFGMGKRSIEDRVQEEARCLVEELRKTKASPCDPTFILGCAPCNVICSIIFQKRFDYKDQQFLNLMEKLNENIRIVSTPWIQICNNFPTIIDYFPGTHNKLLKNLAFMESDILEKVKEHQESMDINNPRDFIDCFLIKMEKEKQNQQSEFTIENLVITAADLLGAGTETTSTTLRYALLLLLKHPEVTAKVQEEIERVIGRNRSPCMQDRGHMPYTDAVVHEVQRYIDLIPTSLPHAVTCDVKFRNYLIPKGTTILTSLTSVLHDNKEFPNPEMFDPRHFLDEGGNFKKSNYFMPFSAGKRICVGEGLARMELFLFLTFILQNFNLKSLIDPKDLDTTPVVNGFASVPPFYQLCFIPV

[13] = molecular target: Cytochrome P450 2D6 (Homo sapiens, UniProt P10635); experiment: Inhibition of CYP2D6; assay type: ADME
Cytochrome P450 2D6, sequence (P10635 whole entry): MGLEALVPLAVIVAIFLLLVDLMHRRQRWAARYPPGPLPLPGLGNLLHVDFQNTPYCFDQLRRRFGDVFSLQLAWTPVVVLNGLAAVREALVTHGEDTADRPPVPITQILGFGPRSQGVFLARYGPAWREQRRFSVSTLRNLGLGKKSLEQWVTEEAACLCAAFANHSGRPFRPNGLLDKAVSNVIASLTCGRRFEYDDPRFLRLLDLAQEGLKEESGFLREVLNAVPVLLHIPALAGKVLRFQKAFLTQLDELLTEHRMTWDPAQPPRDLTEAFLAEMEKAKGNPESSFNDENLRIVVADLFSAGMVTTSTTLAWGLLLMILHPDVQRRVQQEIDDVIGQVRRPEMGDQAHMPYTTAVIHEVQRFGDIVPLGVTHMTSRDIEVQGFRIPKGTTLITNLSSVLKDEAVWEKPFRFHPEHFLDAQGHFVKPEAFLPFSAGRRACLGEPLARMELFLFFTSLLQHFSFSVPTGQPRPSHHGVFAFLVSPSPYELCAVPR

[14] = molecular target: T1, Cytochrome P450 1A2 (Homo sapiens, UniProt P05177); experiment: Inhibition of CYP1A2; assay type: ADME
T1 sequence (P05177 whole entry): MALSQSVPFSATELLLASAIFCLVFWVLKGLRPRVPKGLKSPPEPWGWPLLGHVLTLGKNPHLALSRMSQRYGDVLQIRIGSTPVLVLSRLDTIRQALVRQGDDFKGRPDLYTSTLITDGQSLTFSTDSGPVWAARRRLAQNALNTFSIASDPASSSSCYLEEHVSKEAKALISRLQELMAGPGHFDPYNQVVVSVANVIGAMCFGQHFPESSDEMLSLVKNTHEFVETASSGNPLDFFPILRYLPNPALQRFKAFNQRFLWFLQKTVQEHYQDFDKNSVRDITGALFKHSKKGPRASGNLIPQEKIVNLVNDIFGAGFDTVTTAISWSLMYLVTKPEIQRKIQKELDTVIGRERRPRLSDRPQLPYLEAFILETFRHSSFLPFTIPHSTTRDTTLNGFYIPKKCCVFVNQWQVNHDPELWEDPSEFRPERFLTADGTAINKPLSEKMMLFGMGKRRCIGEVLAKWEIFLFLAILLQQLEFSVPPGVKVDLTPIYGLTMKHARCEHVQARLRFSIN

[15] = molecular target: Cytochrome P450 2C9 (Homo sapiens, UniProt P11712); experiment: Inhibition of CYP2C9; assay type: ADME
Cytochrome P450 2C9, sequence (P11712 whole entry): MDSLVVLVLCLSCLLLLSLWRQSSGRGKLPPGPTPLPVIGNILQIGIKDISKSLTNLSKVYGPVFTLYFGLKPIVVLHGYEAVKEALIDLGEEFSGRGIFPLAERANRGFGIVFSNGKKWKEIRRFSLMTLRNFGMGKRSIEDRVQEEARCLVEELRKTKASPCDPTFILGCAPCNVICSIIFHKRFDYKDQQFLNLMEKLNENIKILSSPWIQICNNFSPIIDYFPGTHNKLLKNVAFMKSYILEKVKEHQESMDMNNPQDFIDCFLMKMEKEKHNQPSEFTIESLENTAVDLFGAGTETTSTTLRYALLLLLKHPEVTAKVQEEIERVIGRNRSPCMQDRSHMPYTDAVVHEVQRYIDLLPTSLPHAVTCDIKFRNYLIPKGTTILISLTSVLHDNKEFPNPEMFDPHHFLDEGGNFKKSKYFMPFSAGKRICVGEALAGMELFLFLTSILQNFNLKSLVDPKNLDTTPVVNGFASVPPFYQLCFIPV

[16] = molecular target: T2, Mast/stem cell growth factor receptor Kit (Homo sapiens, UniProt P10721); experiment: Binding affinity to KIT expressed in HEK-293 cells; assay type: cell-based, HEK293
T2 sequence (P10721 whole entry): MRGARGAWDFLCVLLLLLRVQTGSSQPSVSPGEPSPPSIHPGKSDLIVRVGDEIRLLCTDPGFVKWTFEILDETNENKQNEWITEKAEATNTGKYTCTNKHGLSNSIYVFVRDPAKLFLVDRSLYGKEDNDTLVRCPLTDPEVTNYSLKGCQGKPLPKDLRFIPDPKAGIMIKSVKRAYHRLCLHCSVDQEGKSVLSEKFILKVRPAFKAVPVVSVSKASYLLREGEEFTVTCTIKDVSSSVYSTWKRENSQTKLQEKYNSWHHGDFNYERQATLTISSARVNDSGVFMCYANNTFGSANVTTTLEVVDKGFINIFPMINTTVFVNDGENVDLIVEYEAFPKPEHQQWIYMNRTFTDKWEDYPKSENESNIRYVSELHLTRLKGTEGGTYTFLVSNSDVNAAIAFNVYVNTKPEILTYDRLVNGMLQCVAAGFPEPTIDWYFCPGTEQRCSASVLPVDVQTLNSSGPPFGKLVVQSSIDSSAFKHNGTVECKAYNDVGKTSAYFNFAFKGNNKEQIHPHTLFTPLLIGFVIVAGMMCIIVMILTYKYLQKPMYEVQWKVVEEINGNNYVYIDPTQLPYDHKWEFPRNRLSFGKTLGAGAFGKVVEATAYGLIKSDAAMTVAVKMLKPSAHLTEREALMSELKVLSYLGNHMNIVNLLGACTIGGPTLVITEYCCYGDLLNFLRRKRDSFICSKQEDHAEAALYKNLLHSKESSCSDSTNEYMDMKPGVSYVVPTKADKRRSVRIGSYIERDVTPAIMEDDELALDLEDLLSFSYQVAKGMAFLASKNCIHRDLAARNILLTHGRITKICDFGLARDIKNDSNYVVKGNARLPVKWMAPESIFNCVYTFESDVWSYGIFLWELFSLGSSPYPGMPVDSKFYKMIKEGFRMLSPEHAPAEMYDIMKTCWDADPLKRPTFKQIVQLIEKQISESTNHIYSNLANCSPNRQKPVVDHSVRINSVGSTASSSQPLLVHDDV

[17] = molecular target: T2, Mast/stem cell growth factor receptor Kit; experiment: Inhibition of KIT phosphorylation in human H526 cells; assay type: cell-based
[18] = test system: Mus musculus; experiment: Antiarthritic activity in collagen-induced arthritis mouse assessed as decrease in joint swelling and inflammation at 10 to 30 mg/kg, po for 15 days; assay type: functional, organism-based
[19] = test system: Mus musculus; experiment: Antiarthritic activity in po dosed collagen-induced arthritis mouse assessed as decrease in paw clinical scores administered for 15 days; assay type: functional, organism-based
[20] = test system: MV4-11; experiment: Antitumor activity against human MV4-11 cells xenografted in SCID mouse assessed as complete reduction in tumor volume at 3 to 30 mg/kg for 2 weeks; assay type: functional, organism-based
[21] = test system: MV4-11; experiment: Antitumor activity against human MV4-11 cells xenografted in SCID mouse assessed as reduction in tumor volume at 0.3 mg/kg for 2 weeks; assay type: functional, organism-based; parameters: dose 0.3 mg/kg
[22] = Aqueous solubility of the compound in water; assay type: physicochemical

Structure (SMILES)	inhibition [1]	bioavailability [2] [%]	AUC [3] [µM·h]	clearance [4] [mL/min/kg]	further results
CN1C(C)(C)CC(Oc2ccc(C(=O)Nc3ccc(NC(=O)Nc4cc(C(C)(C)C)on4)cc3)nc2)CC1(C)C	Dose-dependent effect	–	–	–	–
Cc1ccnc(C(=O)Nc2ccc(NC(=O)Nc3cc(C(C)(C)C)on3)cc2)c1	–	4	0.5	37.9	–
CC(C)(C)c1cc(NC(=O)Nc2ccc(NC(=O)c3cc(OC4CCNCC4)ccn3)cc2)no1	–	3	0.4	35.8	–
CCN1CCC(Oc2ccc(C(=O)Nc3ccc(NC(=O)Nc4cc(C(C)(C)C)on4)cc3)nc2)CC1 [listing 1 of 2 here]	–	20	4.8	25.8	inhibition in vivo at 100 mg/kg [5]: 73%; inhibition in vivo at 30 mg/kg [6]: 46%; inhibition in vivo at 10 mg/kg [7]: 31%; Activity [8]: Non-toxic; AUC [9]: 9.9 µM·h; Activity [10]: Toxic; IC50 [11]: > 40 µM; IC50 [12]: > 40 µM; IC50 [13]: > 40 µM; IC50 [14]: > 40 µM; IC50 [15]: > 40 µM; Kd [16]: 0.0006 µM; IC50 [17]: 0.0079 µM
CCN1C(C)(C)CC(Oc2ccc(C(=O)Nc3ccc(NC(=O)Nc4cc(C(C)(C)C)on4)cc3)nc2)CC1(C)C	Dose-dependent effect	–	–	–	inhibition [18]: Active; inhibition [19]: Active; Activity [20]: Active; Activity [21]: Active
CC(C)(C)c1cc(NC(=O)Nc2ccc(NC(=O)c3ccc(OC4CCN(C(C)(C)C)CC4)cn3)cc2)no1	–	22	5	15	–
CCN1CCC(Oc2ccc(C(=O)Nc3ccc(NC(=O)Nc4cc(C(C)(C)C)on4)cc3)nc2)CC1.CS(=O)(=O)O	–	–	–	–	solubility [22]: 1130 µg/mL
CC1(C)CC(Oc2ccc(C(=O)Nc3ccc(NC(=O)Nc4cc(C(C)(C)C)on4)cc3)nc2)CC(C)(C)N1	–	8	2.4	11	–
CCN1CCC(Oc2ccc(C(=O)Nc3ccc(NC(=O)Nc4cc(C(C)(C)C)on4)cc3)nc2)CC1 [listing 2 of 2 here]	Dose-dependent effect	–	–	–	–
CC(C)(C)c1cc(NC(=O)Nc2ccc(NC(=O)c3ccc(OC4CCN(C5CC5)CC4)cn3)cc2)no1	–	36	9.5	12	–

Source: ChEMBL document CHEMBL2203000, “Discovery of AC710, a Globally Selective Inhibitor of Platelet-Derived Growth Factor Receptor-Family Kinases” (ACS Med Chem Lett, 2012)
